Laboratory results taken from US7786155B2, “Organic compounds” (Novartis AG, priority 2007, dated 2010).

Columns and labels:
[1] = test system: rats; conditions: icv administration (Thorsell et al. Neurosci. Lett. 2002); cited from earlier work
[2] = biological target: T1, recombinant human NPY Y2 receptors (Homo sapiens, UniProt P49146); experiment: Scintillation proximity [35S]GTPγS binding assay (inhibition of 0.5 nM NPY-stimulated [35S]GTPγS binding); format: biochemical; conditions: 10 μM compound, membranes from CHO-C4 cells expressing recombinant human NPY Y2 receptors; for inhibition at 10 µM: read-out: [%] inhibiton at 10 μM
T1 construct: expressed in transfected cells; host or cells: CHO-C4 cells (membrane preparation)
T1 sequence (P49146 1-381): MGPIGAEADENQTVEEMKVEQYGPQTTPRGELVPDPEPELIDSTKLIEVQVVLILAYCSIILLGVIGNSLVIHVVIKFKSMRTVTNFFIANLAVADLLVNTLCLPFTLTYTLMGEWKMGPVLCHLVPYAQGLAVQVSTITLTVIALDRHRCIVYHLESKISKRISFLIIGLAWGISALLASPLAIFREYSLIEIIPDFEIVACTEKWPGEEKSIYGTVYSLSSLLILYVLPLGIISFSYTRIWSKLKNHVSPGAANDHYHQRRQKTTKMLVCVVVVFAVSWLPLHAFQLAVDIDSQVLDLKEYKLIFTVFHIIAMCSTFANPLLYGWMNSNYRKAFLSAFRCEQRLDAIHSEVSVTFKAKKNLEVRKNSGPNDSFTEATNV
Description: Preparation of Membranes: CHO-C4 cells expressing recombinant human NPY Y2 receptors were used to prepare membranes for the GTPγS assay. Cells were grown to 80-95% confluency on 15-cm (225 cm^2) tissue culture plates. After aspiration of the culture medium, cells were washed twice with 18 ml ice-cold phosphate-buffered saline (PBS), scraped off and suspended in 3 ml ice-cold PBS in pre-cooled centrifuge tubes. The dishes were rinsed with 2 ml ice-old PBS per dish and the washings were combined with the PBS cell suspension from above. Cells pooled from 5-7 dishes were centrifuged for 5 min at 10,000 rpm (12,000 g) in a Sorvall RC5B centrifuge using an SS34 rotor at […]. The cell pellet was resuspended in 5 ml ice-cold buffer (20 mM HEPES, 10 mM EDTA; pH 7.4) by vortexing (2-5 sec), homogenized using a Polytron (step 4 for 20-30 sec), and ice-cold buffer added to 25 ml. The suspension was centrifuged again for 20 min at 18,000 rpm (39,000 g) at 4° C. and the pellet resuspended in 5 ml ice-cold buffer (20 mM HEPES, 0.1 mM EDTA; pH 7.4) by vortexing (2-5 sec), homogenized with a Polytron (step 4 for 10 sec), and ice-cold buffer added to 25 ml. The suspension was centrifuged a third time for 20 min at 18,000 rpm (39,000 g) at 4° C. The pellet was resuspend in 1 ml ice-cold buffer (20 mM Hepes, 0.1 mM EDTA; pH 7.4) by vortexing (5-8 sec). Two to five resuspended pellets were combined and homogenized using a Polytron (step 4 for 15-25 sec). A small aliquot (20-50 μl) was removed for protein determination by the Coomassie Plus Protein Assay Reagent (Pierce) using BSA as standard. The membrane suspension was aliquoted in precooled (on dry ice) Eppendorf tubes (0.25-1 ml/tube affording approximately 0.5-2 mg of membrane protein/tube). The pellets were frozen and stored at −80° C.
Scintillation proximity [^35S]GTPγS binding assay: Frozen membranes from CHO-C4 cells expressing recombinant human NPY Y2 receptors (2 mg for four 96-well plates) were thawed on ice. Thawed membranes were pipetted into 10 ml of assay buffer (20 mM HEPES, 10 mM MgCl2, 100 mM NaCl, pH 7.4) and homogenized briefly using a Polytron. The final assay mixture was prepared in 96-well microtiter plates (Isoplate Wallac, Perkin Elmer). The composition of the assay mixtures in a final volume of 250 μl per well was as follows: 20 mM HEPES, 10 mM MgCl2, 100 mM NaCl, pH 7.4, 30 μM GDP, 1 mg/ml BSA (added fresh), 5 μg membrane protein, 1.5 mg Wheatgerm agglutinin SPA beads (Amersham), 0.45 nM [^35S]GTPγS (Amersham, SJ1308, 1000 Ci/mmol, stabilized solution), and the test compounds (agonists and/or antagonists) at the appropriate concentrations. The samples were incubated at room temperature for 90 min by shaking, after which the SPA beads were sedimented by centrifugation in an Eppendorf 5804 centrifuge at 2700 rpm for 10 min at room temperature. After 60 min the plates were counted in a TopCount (Canberra). Basal [^35S]GTPγS binding was measured in the absence of agonist (NPY). Non-specific binding was measured in the presence of excess (10 μM) unlabelled GTPγS (Sigma). Nonspecific binding never exceeded 10% of basal binding and was thus not subtracted from the experimental data. Antagonists were tested for the inhibition of 0.5 nM NPY-stimulated [^35S]GTPγS binding. Antagonist inhibition curves were analyzed by non-linear regression using GraphPad Prism software (Version 4.0, GraphPad Software Inc., CA, USA).
Antagonistic activity of compounds of the present invention was examined by the Scintillation proximity [^35S]GTPγS binding assay as described above (inhibition of 0.5 nM NPY-stimulated [^35S]GTPγS binding). The table below represents percentages of inhibition at a concentration of 10 μM.

inhibition at 10 µM [2] [%] | Structure (SMILES) | further results
– | N=C(N)NCCC[C@H](NC(=O)CC1(CC(=O)N2CCN(C3c4ccccc4NC(=O)c4ccccc43)CC2)CCCC1)C(=O)NCCn1c(=O)n(-c2ccccc2)n(-c2ccccc2)c1=O (stereo partly shown) [BIIE0246] | ethanol self-administration [1]: dose dependently reduced ethanol self-administration
– | COc1ccccc1CC(=O)Nc1ccc(C(=O)CN2C(=O)C(c3ccccc3)(c3ccccc3)N=C2C)cc1 [Compound 30, 2-(2-Methoxy-phenyl)-N-{4-[2-(2-methyl-5-oxo-4,4-phenyl-4,5-dihydro-imidazol-1yl)-acetyl]-phenyl}-acetamide] | [%] inhibiton at 10 μM [2]: 78%
60 | CCC(CC)C(=O)Nc1ccc(C(=O)CN2C(=O)C(c3ccccc3)(c3ccccc3)N=C2C)c(F)c1 [Compound 33, 2-Ethyl-N-{3-fluoro-4-[2-(2-methyl-5-oxo-4,4-diphenyl-4,5-dihydro-imidazol-1-yl)-acetyl]-phenyl}-butyramide] | –
65 | CCC(CC)C(=O)Nc1ccc(C(=O)CN2C(=O)C(c3ccccc3)(c3ccccc3)N=C2C)cc1 [Compound 34, 2-Ethyl-N-{4-[2-(2-methyl-5-oxo-4,4-diphenyl-4,5-dihydro-imidazol-1-yl)-acetyl]-phenyl}-butyramide] | –
